Like-named read-outs stand apart in the source and are kept apart here.
Key:
rice blast = test: microbe, parasite or virus in culture; assay type: cell-based; conditions: for inhibition rate against rice blast: in vitro; for the inhibition rate against rice blast (%) 0.03 mg/L: Table 21, 0.03 mg/L; for the inhibition rate against rice blast (%) 0.1 mg/L: Table 21, 0.1 mg/L; for the inhibition rate against rice blast (%) 0.3 mg/L: Table 21, 0.3 mg/L; for inhibition at 0.03 µg/mL: read-out: the inhibition rate against rice blast (%) 0.03 mg/L; for inhibition at 0.1 µg/mL: read-out: the inhibition rate against rice blast (%) 0.1 mg/L; for inhibition at 0.3 µg/mL: read-out: the inhibition rate against rice blast (%) 0.3 mg/L
cucumber downy mildew = test: Protectant activity in vivo (whole plant) against cucumber downy mildew
Outline: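 Whole plants sprayed with test solution, water plus 0.1% Tween-80 and no more than 5% solvent, then inoculated with the pathogen after 24 h. Plants held in humidity chamber or directly in greenhouse depending on fungus. Disease control scored by eye at about 7 days.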

corn rust = test: Protectant activity in vivo (whole plant) against corn rust
Description: The method is as followed: The whole plant is used in this test. The compound is dissolved in a proper solvent to get mother solution. The proper solvent is selected from acetone, methanol, DMF and so on according to their dissolving capability to the sample. The volume rate of solvent and testing solution (v/v) is equal to or less than 5%. The mother solution is diluted with water containing 0.1% tween-80 to get the testing solution whose concentration is designed. The testing solution is sprayed to the host plant by a special plant sprayer. The plant is inoculated with fungus after 24 hours. According to the infecting characteristic of fungus, the plant is stored in a humidity chamber and then transferred into greenhouse after infection is finished. And the other plants are placed in greenhouse directly. The activity of compound is obtained by eyeballing after 7 days in common.

cucumber gray mold = test: Activity in vitro (96-well, High Through Put): inhibition rate against cucumber gray mold; assay type: cell-based; conditions: for inhibition at 25 µg/mL: dose 25 mg/L
Description: The method is as followed: High Through Put is used in the test. The compound is dissolved in a proper solvent to become a testing solution whose concentration is designed. The solvent is selected from acetone, methanol, DMF and so on according to their dissolving capability to the sample. In a no animalcule condition, the testing solution and pathogens suspension are added into the cells of 96 cells culture board, which then should be placed in the constant temperature box. 24 hours later, pathogen germination or growth can be investigated by eyeballing, and the activity in vitro of the compound is evaluated based on germination or growth of control treatment.

[1] = 0.9 mg/L, read-out: the inhibition rate against cucumber gray mold (%)
[2] = 2.8 mg/L, read-out: the inhibition rate against cucumber gray mold (%)
[3] = 8.3 mg/L, read-out: the inhibition rate against cucumber gray mold (%)
[4] = Pyricularia oryzae, read-out: inhibition rate against rice blast

Compound	protectant activity against cucumber downy mildew in vivo (cucumber downy mildew; dose 50 mg/L) [%]	protectant activity against cucumber downy mildew in vivo (cucumber downy mildew; dose 100 mg/L) [%]	protectant activity against cucumber downy mildew in vivo (cucumber downy mildew; dose 400 mg/L) [%]	protectant activity against corn rust in vivo (corn rust; dose 400 mg/L) [%]	the inhibition rate against rice blast (%) 0.03 mg/L (rice blast) [%]	the inhibition rate against rice blast (%) 0.1 mg/L (rice blast) [%]	the inhibition rate against rice blast (%) 0.3 mg/L (rice blast) [%]	the protectant activity (%) against cucumber downy mildew (cucumber downy mildew; 25 mg/L) [%]	the protectant activity (%) against cucumber downy mildew (cucumber downy mildew; 50 mg/L) [%]	the protectant activity (%) against cucumber downy mildew (cucumber downy mildew; 100 mg/L) [%]	also measured
N#Cc1c(F)c(F)c(Nc2ccc(C(F)(F)F)cc2Cl)c(C#N)c1F [Compound B-92]	98	100	100	100	–	–	–	–	–	–	inhibition rate against rice blast (rice blast; dose 0.3 mg/L): 80%; protectant activity against corn rust in vivo (corn rust; dose 100 mg/L): 100%
CN(C)c1c(Cl)c(Nc2c(Cl)cc([N+](=O)[O-])cc2Cl)c(C#N)c(Cl)c1C#N [Compound B-73]	100	100	100	100	0	0	80	50	100	100	inhibition rate against rice blast (rice blast; dose 0.3 mg/L): 80%; the protectant activity (%) against corn rust (corn rust; 6.25 mg/L): 30%; the protectant activity (%) against corn rust (corn rust; 25 mg/L): 70%; the protectant activity (%) against corn rust (corn rust; 100 mg/L): 100%; the protectant activity (%) against corn rust (corn rust; 400 mg/L): 98%; protectant activity against corn rust in vivo (corn rust; dose 100 mg/L): 100%
CN(C)c1ccc(Nc2c(Cl)c(Cl)c(C#N)c(Cl)c2C#N)cc1 [KC23]	–	–	–	–	–	–	–	–	–	–	inhibition at 0.3 µg/mL (cucumber gray mold; 0.3 mg/L): 0%; inhibition at 0.9 µg/mL (cucumber gray mold; [1]): 0%; inhibition at 2.8 µg/mL (cucumber gray mold; [2]): 0%; inhibition at 8.3 µg/mL (cucumber gray mold; [3]): 0%; inhibition at 25 µg/mL (cucumber gray mold; in vitro): 0%; inhibition at 25 µg/mL (rice blast; [4]): 0%; inhibition at 0.03 µg/mL (rice blast; Pyricularia oryzae): 0%; inhibition at 0.1 µg/mL (rice blast; Pyricularia oryzae): 0%; inhibition at 0.3 µg/mL (rice blast; Pyricularia oryzae): 0%
N#Cc1c(Cl)c(Cl)c(Nc2ccc([N+](=O)[O-])cc2Cl)c(C#N)c1Cl [Compound B-35]	98	100	100	–	50	80	100	98	98	100	the inhibition rate against cucumber gray mold (%) (cucumber gray mold; 0.3 mg/L): 100%; the inhibition rate against cucumber gray mold (%) (cucumber gray mold; 0.9 mg/L): 100%; the inhibition rate against cucumber gray mold (%) (cucumber gray mold; 2.8 mg/L): 100%; the inhibition rate against cucumber gray mold (%) (cucumber gray mold; 8.3 mg/L): 100%; the protectant activity (%) against cucumber downy mildew (cucumber downy mildew; 12.5 mg/L): 98%; protectant activity against cucumber downy mildew in vivo (cucumber downy mildew; dose 12.5 mg/L): 98%
COC(=O)c1cc(Cl)c(Nc2c(Cl)c(Cl)c(C#N)c(Cl)c2C#N)c(Cl)c1 [Compound B-62]	–	–	–	100	0	80	100	–	–	–	the protectant activity (%) against corn rust (corn rust; 6.25 mg/L): 0%; the protectant activity (%) against corn rust (corn rust; 25 mg/L): 30%; the protectant activity (%) against corn rust (corn rust; 100 mg/L): 60%; the protectant activity (%) against corn rust (corn rust; 400 mg/L): 100%
N#Cc1c(Cl)c(Cl)c(Nc2cc(C(F)(F)F)ccc2Cl)c(C#N)c1Cl [Compound B-29]	100	100	100	–	0	50	100	100	100	100	the inhibition rate against cucumber gray mold (%) (cucumber gray mold; 0.9 mg/L): 50%; the inhibition rate against cucumber gray mold (%) (cucumber gray mold; 2.8 mg/L): 80%; the inhibition rate against cucumber gray mold (%) (cucumber gray mold; 8.3 mg/L): 80%; inhibition rate against cucumber gray mold (cucumber gray mold; in vitro, dose 8.3 mg/L): 80%; the protectant activity (%) against cucumber downy mildew (cucumber downy mildew; 12.5 mg/L): 30%; protectant activity against cucumber downy mildew in vivo (cucumber downy mildew; dose 25 mg/L): 100%
N#Cc1c(Cl)c(Cl)c(C#N)c(Nc2c(Cl)cc([N+](=O)[O-])cc2Br)c1Cl [Compound C-49]	–	–	–	100	100	100	100	–	–	–	the protectant activity (%) against corn rust (corn rust; 6.25 mg/L): 50%; the protectant activity (%) against corn rust (corn rust; 25 mg/L): 80%; the protectant activity (%) against corn rust (corn rust; 100 mg/L): 90%; the protectant activity (%) against corn rust (corn rust; 400 mg/L): 100%
N#Cc1c(F)c(F)c(Nc2c(Cl)c(F)nc(F)c2Cl)c(F)c1C#N [KC28]	–	–	–	–	–	–	–	–	–	–	inhibition at 0.3 µg/mL (cucumber gray mold; 0.3 mg/L): 0%; inhibition at 0.9 µg/mL (cucumber gray mold; [1]): 0%; inhibition at 2.8 µg/mL (cucumber gray mold; [2]): 0%; inhibition at 8.3 µg/mL (cucumber gray mold; [3]): 0%; inhibition at 8.3 µg/mL (cucumber gray mold; in vitro, dose 8.3 mg/L, read-out: inhibition rate against cucumber gray mold): 0%; inhibition at 25 µg/mL (cucumber gray mold; in vitro): 80%; inhibition at 2.8 µg/mL (rice blast; [4]): 0%; inhibition at 8.3 µg/mL (rice blast; [4]): 50%; inhibition at 25 µg/mL (rice blast; [4]): 80%; inhibition at 0.03 µg/mL (rice blast; Pyricularia oryzae): 0%; inhibition at 0.1 µg/mL (rice blast; Pyricularia oryzae): 0%; inhibition at 0.3 µg/mL (rice blast; Pyricularia oryzae): 0%
N#Cc1c(Cl)c(Cl)c(Nc2ccc(C(F)(F)F)cc2Cl)c(C#N)c1Cl [Compound B-28]	98	100	100	–	80	100	100	80	98	100	the protectant activity (%) against cucumber downy mildew (cucumber downy mildew; 12.5 mg/L): 20%
N#Cc1c(Cl)c(Cl)c(C#N)c(Nc2c(F)cc([N+](=O)[O-])cc2F)c1Cl [Compound C-45]	–	–	–	–	100	100	100	–	–	–	the inhibition rate against cucumber gray mold (%) (cucumber gray mold; 0.3 mg/L): 100%; the inhibition rate against cucumber gray mold (%) (cucumber gray mold; 0.9 mg/L): 100%; the inhibition rate against cucumber gray mold (%) (cucumber gray mold; 2.8 mg/L): 100%; the inhibition rate against cucumber gray mold (%) (cucumber gray mold; 8.3 mg/L): 100%
N#Cc1c(Cl)c(Cl)c(Nc2cc(Cl)cnc2Cl)c(C#N)c1Cl [Compound B-133]	100	100	–	–	100	100	100	100	100	100	the protectant activity (%) against cucumber downy mildew (cucumber downy mildew; 12.5 mg/L): 95%; protectant activity against cucumber downy mildew in vivo (cucumber downy mildew; dose 6.25 mg/L): 80%; protectant activity against cucumber downy mildew in vivo (cucumber downy mildew; dose 25 mg/L): 100%
N#Cc1cc(Cl)c(Nc2c(Cl)c(Cl)c(C#N)c(Cl)c2C#N)c(Cl)c1 [Compound B-51]	–	–	–	–	0	50	100	–	–	–	the inhibition rate against cucumber gray mold (%) (cucumber gray mold; 0.9 mg/L): 80%; the inhibition rate against cucumber gray mold (%) (cucumber gray mold; 2.8 mg/L): 80%; the inhibition rate against cucumber gray mold (%) (cucumber gray mold; 8.3 mg/L): 100%
N#Cc1c(Cl)c(Cl)c(Nc2c(Cl)cc([N+](=O)[O-])cc2Br)c(Cl)c1C#N [Compound A-46]	–	–	–	100	100	100	100	–	–	–	the protectant activity (%) against corn rust (corn rust; 6.25 mg/L): 75%; the protectant activity (%) against corn rust (corn rust; 25 mg/L): 85%; the protectant activity (%) against corn rust (corn rust; 100 mg/L): 95%; the protectant activity (%) against corn rust (corn rust; 400 mg/L): 100%
N#Cc1c(Cl)c(Cl)c(Nc2c(Cl)c(Cl)c(C#N)c(Cl)c2C#N)c(C#N)c1Cl [Compound B-69]	–	–	100	100	–	–	–	–	–	–	inhibition rate against rice blast (rice blast; dose 8.3 mg/L): 80%
N#Cc1c(Cl)c(Cl)c(Nc2ccc(Cl)cc2[N+](=O)[O-])c(C#N)c1Cl [Compound B-39]	–	–	100	–	0	80	100	–	–	–	–

— patent US8937072B2, “Substituted cyanoaniline compounds, preparation and use thereof” (Sinochem Corporation, priority 2011, dated 2015)
